Reference: patent US20200345010A1, “FUNGICIDAL OXADIAZOLES” (FMC Corporation, priority 2019, published 2020)
Marks after values point to notes of the source that are not given here.

What was measured:
Phakopsora pachyrhizi = assay: Test A: Asian soybean rust control on soybean seedlings; format: in vivo; details: soybean seedlings sprayed the day before inoculation, 100 = 100% disease control, 0 = none
Text: (§1) General protocol for preparing test suspensions for Tests A-C: the test compounds were first dissolved in acetone in an amount equal to 3% of the final volume and then suspended at the desired concentration (in ppm) in acetone and purified water (50/50 mix by volume) containing 250 ppm of the surfactant PEG400 (polyhydric alcohol esters). The resulting test suspensions were then used in Tests A-C.
(§2) The test solution was sprayed to the point of run-off on soybean seedlings. The following day the seedlings were inoculated with a spore suspension of Phakopsora pachyrhizi (the causal agent of Asian soybean rust) and incubated in a saturated atmosphere at 22° C. for 24 h, and then moved to a growth chamber at 22° C. for 8 days, after which time visual disease ratings were made.
(§3) A rating of 100 indicates 100% disease control and a rating of 0 indicates no disease control (relative to the controls). A dash (-) indicates the compound was not tested.

[1] = system: Puccinia recondita f. sp. tritici; assay: Test C: wheat leaf rust control on wheat seedlings; format: in vivo; details: wheat seedlings sprayed the day before inoculation, 100 = 100% disease control, 0 = none
Text: as §1
as §2, with “wheat” for “soybean”, “Puccinia recondita f. sp. tritici” for “Phakopsora pachyrhizi”, “wheat leaf” for “Asian soybean”, “20°” for “22°”, “7” for “8”, “time” for “time visual”
as §3

Zymoseptoria tritici = assay: Test B: wheat leaf blotch control on wheat seedlings; format: in vivo; details: 250 ppm test suspension (asterisk); wheat seedlings sprayed the day before inoculation; 100 = 100% disease control, 0 = none
Text: as §1
The test solution was sprayed to the point of run-off on wheat seedlings. The following day the seedlings were inoculated with a spore suspension of Zymoseptoria tritici (the causal agent of wheat leaf blotch) and incubated in a saturated atmosphere at 24° C. for 48 h, and then moved to a growth chamber at 20° C. for 17 days, after which time disease ratings were made.
as §3

[2] = 250 ppm test suspension (asterisk)

SMILES | Test A disease control rating (Phakopsora pachyrhizi; 10 ppm test suspension) [%] | Test C disease control rating ([1]; 10 ppm test suspension) [%] | Test B disease control rating (Zymoseptoria tritici) | further results
CS(=O)(=NCc1ccc(-c2noc(C(F)(F)F)n2)cc1)c1ccccc1 (single isomer, unassigned) [Compound 8] | 100 | 68 |  | 
CS(=O)(=NCc1ccc(-c2noc(C(F)(F)F)n2)cc1)c1ccccc1 (single isomer, unassigned) [Compound 23] |  |  |  | Test A disease control rating (Phakopsora pachyrhizi; 50 ppm test suspension): 100%; Test C disease control rating ([1]; 50 ppm test suspension): 85%
CS(C)(=O)=Nc1ccc(-c2noc(C(F)(F)F)n2)cc1 [Compound 1] | 73 | 0 |  | 
CS(=O)(Cc1ccccc1)=NCc1ccc(-c2noc(C(F)(F)F)n2)cc1 (centres unmarked) [Compound 2, N-[methyloxido(phenylmethyl)-λ^4-sulfanylidene]-4-[5-(trifluoromethyl)-1,2,4-oxadiazol-3-yl]benzenemethanamine] |  |  | 93* % | Test A disease control rating (Phakopsora pachyrhizi; 50 ppm test suspension): 100%; Test C disease control rating ([1]; 50 ppm test suspension): 100%
CS(=O)(=NCc1ccc(-c2noc(C(F)(F)F)n2)cc1)c1ccc(Cl)cc1 (centres unmarked) [Compound 3] | 94 | 0 |  | 
CS(=O)(=NCc1ccc(-c2noc(C(F)(F)F)n2)cc1)c1ccccn1 (centres unmarked) [Compound 4] | 98 | 74 |  | 
CS(=O)(=Nc1ccc(-c2noc(C(F)(F)F)n2)cc1)c1ccccn1 (centres unmarked) [Compound 6] | 99 | 74 |  | 
CS(=O)(=NCc1ccc(-c2noc(C(F)(F)F)n2)cc1)c1ccc(Br)cc1 (centres unmarked) [Compound 9] | 92 | 0 |  | 
CS(=O)(=NCc1ccc(-c2noc(C(F)(F)F)n2)cc1)c1ccc(C#N)cc1 (centres unmarked) [Compound 10] | 100 | 55 |  | 
CS(=O)(=NCc1ccc(-c2noc(C(F)(F)F)n2)cc1)c1ccc(C(F)(F)F)cc1 (centres unmarked) [Compound 11] | 99 | 0 |  | 
O=S(=NCc1ccc(-c2noc(C(F)(F)F)n2)cc1)(c1ccccc1)C1CC1 (centres unmarked) [Compound 12] | 97 |  | 53* % | Test C disease control rating [1, 2]: 99* %
CS(=O)(=Nc1ccc(-c2noc(C(F)(F)F)n2)cc1)c1cccs1 (centres unmarked) [Compound 13] | 100 | 45 | 91* % | 
O=S1(=NCc2ccc(-c3noc(C(F)(F)F)n3)cc2)CCOCC1 [Compound 14] | 99 | 91 |  | 
O=S(CCl)(=NCc1ccc(-c2noc(C(F)(F)F)n2)cc1)c1ccccc1 (centres unmarked) [Compound 15] | 97 |  | 28* % | Test C disease control rating [1, 2]: 99* %
O=S1(=Nc2ccc(-c3noc(C(F)(F)F)n3)cc2)CCCC1 [Compound 16] | 77 | 0 | 89* % | 
COC(=O)CCS(=O)(=NCc1ccc(-c2noc(C(F)(F)F)n2)cc1)c1ccccc1 (centres unmarked) [Compound 18] | 84 | 0 |  | 
O=S(CCC(F)(F)F)(=NCc1ccc(-c2noc(C(F)(F)F)n2)cc1)c1ccccc1 (centres unmarked) [Compound 19] | 85 | 0 |  | 
CS(=O)(=Nc1ccc(-c2noc(C(F)(F)F)n2)cc1)c1ccncc1 (centres unmarked) [Compound 20] | 98 | 89 |  | 
CS(=O)(=NCc1ccc(-c2noc(C(F)(F)F)n2)cc1)c1ccccc1 (centres unmarked) [Compound 21] |  |  | 70* % | Test A disease control rating (Phakopsora pachyrhizi; 50 ppm test suspension): 100%; Test C disease control rating [1, 2]: 100* %
CS(=O)(Cc1ccccc1)=Nc1ccc(-c2noc(C(F)(F)F)n2)cc1 (centres unmarked) [Compound 22] | 54 | 89 |  | 
Cl.O=S1(=NCc2ccc(-c3noc(C(F)(F)F)n3)cc2)CCNCC1 [Compound 24] | 99 |  | 18* % | melting point: 219 to 223 °C; Test C disease control rating [1, 2]: 99* %
CS(=O)(=Nc1ccc(-c2noc(C(F)(F)F)n2)cc1)c1ccsc1 (centres unmarked) [Compound 25, N-(methyloxido-3-thienyl-λ^4-sulfanylidene)-4-[5-(trifluoromethyl)-1,2,4-oxadiazol-3-yl]benzenamine] | 100 | 86 |  | 

SMILES | Test A disease control rating (Phakopsora pachyrhizi; 10 ppm test suspension) [%] | Test C disease control rating ([1]; 10 ppm test suspension) [%] | Test B disease control rating (Zymoseptoria tritici) | further results
CS(=O)(=NCc1ccc(-c2noc(C(F)(F)F)n2)cc1)c1cccs1 (centres unmarked) [Compound 27] | 100 |  | 98* % | Test C disease control rating [1, 2]: 100* %
CS(=O)(=NCc1ccc(-c2noc(C(F)(F)F)n2)cc1)c1ccsc1 (centres unmarked) [Compound 28] | 100 |  | 79* % | Test C disease control rating [1, 2]: 100* %
CS(=O)(=NCc1ccc(-c2noc(C(F)(F)F)n2)cc1)c1ccc2ccccc2c1 (centres unmarked) [Compound 29] | 97 |  | 3* % | Test C disease control rating [1, 2]: 99* %
CS(=O)(=Nc1ccc(-c2noc(C(F)(F)F)n2)cc1)c1ccc2ccccc2c1 (centres unmarked) [Compound 30] | 0 | 74 |  | 
CCCS(=O)(=NCc1ccc(-c2noc(C(F)(F)F)n2)cc1)c1ccccc1 (centres unmarked) [Compound 32] | 99 | 0 |  | 
CS(C)(=O)=NCCc1ccc(-c2noc(C(F)(F)F)n2)cc1 [Compound 33, N-(dimethyloxido-λ^4-sulfanylidene)-4-[5-(trifluoromethyl)-1,2,4-oxadiazol-3-yl]benzeneethanamine] | 99 | 68 |  | 
CCS(=O)(CC)=NCc1ccc(-c2noc(C(F)(F)F)n2)cc1 [Compound 34] | 100 | 41 |  | 
CCCS(=O)(Cc1ccccc1)=Nc1ccc(-c2noc(C(F)(F)F)n2)cc1 (centres unmarked) [Compound 35] | 0 | 0 |  | 
CCCS(=O)(Cc1ccccc1)=NCc1ccc(-c2noc(C(F)(F)F)n2)cc1 (centres unmarked) [Compound 36] | 100 | 0 |  | 
CCCS(=O)(=NCc1ccc(-c2noc(C(F)(F)F)n2)cc1)c1c(F)c(F)c(F)c(F)c1F (centres unmarked) [Compound 37] |  |  | 15* % | Test A disease control rating (Phakopsora pachyrhizi; 50 ppm test suspension): 100%; Test C disease control rating ([1]; 50 ppm test suspension): 89%
CS(=O)(=Nc1ccc(-c2noc(C(F)(F)F)n2)cc1)c1ccccc1 (centres unmarked) [Compound 39] | 99 | 100 | 65* % | 
Cc1cc(C)c(S(C)(=O)=NCc2ccc(-c3noc(C(F)(F)F)n3)cc2)c(C)c1 (centres unmarked) [Compound 40] | 91 | 0 | 36* % | 
O=S1(=NCc2ccc(-c3noc(C(F)(F)F)n3)cc2)CCCCC1 [Compound 43] |  |  |  | Test A disease control rating (Phakopsora pachyrhizi; 50 ppm test suspension): 100%; Test C disease control rating ([1]; 50 ppm test suspension): 99%
CS(=O)(=NCc1ccc(-c2noc(C(F)(F)F)n2)cc1)c1ccccc1C#N (centres unmarked) [Compound 44] | 98 | 100 | 0* % | 
CS(=O)(=NCc1ccc(-c2noc(C(F)(F)F)n2)cc1)c1cccc(C#N)c1 (centres unmarked) [Compound 45] | 100 | 100 | 0* % | 
CCCS(C)(=O)=NCc1ccc(-c2noc(C(F)(F)F)n2)cc1 (centres unmarked) [Compound 46] | 100 | 100 | 1* % | 
COc1ccc(S(C)(=O)=NCc2ccc(-c3noc(C(F)(F)F)n3)cc2)cc1 (centres unmarked) [Compound 47] | 99 | 32 |  | 
COCCS(=O)(=NCc1ccc(-c2noc(C(F)(F)F)n2)cc1)c1ccccc1 (centres unmarked) [Compound 48, N-[(2-methoxyethyl)oxidophenyl-λ^4-sulfanylidene]-4-[5-(trifluoromethyl)-1,2,4-oxadiazol-3-yl]benzenemethanamine] | 98 | 45 |  | 
COC(=O)c1ccc(S(C)(=O)=NCc2ccc(-c3noc(C(F)(F)F)n3)cc2)cc1 (centres unmarked) [Compound 49] | 0 | 0 |  | 
CS(C)(=O)=NCc1ccc(-c2noc(C(F)(F)F)n2)cc1 [Compound 50] | 99 |  |  | Test C disease control rating ([1]; 50 ppm test suspension): 100** %
CC(N=S(C)(C)=O)c1ccc(-c2noc(C(F)(F)F)n2)cc1 (centres unmarked) [Compound 52] | 79 |  | 25* % | Test C disease control rating ([1]; 50 ppm test suspension): 98** %
